Our source for the EC50 values is patent US20240246964A1 (Arbutus Biopharma Corporation, priority 2021, published 2024).

The target in the assay is human PD-L1 (Homo sapiens (Human), UniProt Q9NZQ7). Kind of assay: T cell activation luciferase reporter cell culture system (T Cell Activation Assay). In kind it is cell-based. The settings on record: luciferase reporter assay; PD-L1 aAPC/CHO-K1 cells with PD-1 effector Jurkat T cells.
human PD-L1, sequence (Q9NZQ7 19-290): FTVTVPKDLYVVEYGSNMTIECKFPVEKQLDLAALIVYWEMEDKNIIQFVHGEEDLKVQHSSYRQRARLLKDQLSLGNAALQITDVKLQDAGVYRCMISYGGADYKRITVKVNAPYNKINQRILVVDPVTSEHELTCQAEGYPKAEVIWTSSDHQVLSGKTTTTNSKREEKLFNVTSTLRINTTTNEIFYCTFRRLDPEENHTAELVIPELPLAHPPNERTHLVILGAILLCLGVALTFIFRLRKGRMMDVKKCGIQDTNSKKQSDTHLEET
Consider `COc1cc(-c2nccc(-c3cccc(-c4ccc(CNC[C@@H]5CCC(=O)N5)c(OC)n4)c3Cl)c2Cl)cc2c1CN(CCCF)CC2` [Cmpd 63, (S)-5-((((6-(2-chloro-3-(3-chloro-2-(2-(3-fluoropropyl)-8-methoxy-1,2,3,4-tetrahydroisoquinolin-6-yl)pyridin-4-yl)phenyl)-2-methoxypyridin-3-yl)methyl)amino)methyl)pyrrolidin-2-one], for which the response was half-maximal at 40.8 nM (EC50).
`COc1cc(-c2nccc(-c3cccc(-c4ccc(CNC5CCN(C(C)=O)CC5)c(OC)n4)c3Cl)c2Cl)ccc1CN[C@H]1CC[C@H](O)CC1` [Example 360, 1-(4-(((6-(2-Chloro-3-(3-chloro-2-(4-((((1r,4r)-4-hydroxycyclohexyl)amino)methyl)-3-methoxyphenyl)pyridin-4-yl)phenyl)-2-methoxypyridin-3-yl)methyl)amino)piperidin-1-yl)ethan-1-one] returned an EC50 of 31 nM.
`COc1cc(-c2nccc(-c3cccc(-c4ccc(CN(C)C[C@@H]5CCC(=O)N5)c(OC)n4)c3Cl)c2Cl)ccc1CN(C)C[C@@H]1CCC(=O)N1` [Example 472, (S)-5-((((6-(2-Chloro-3-(3-chloro-2-(3-methoxy-4-((methyl(((S)-5-oxopyrrolidin-2-yl)methyl)amino)methyl)phenyl)pyridin-4-yl)phenyl)-2-methoxypyridin-3-yl)methyl)(methyl)amino)methyl)pyrrolidin-2-one]: the EC50 worked out at 31.7 nM.
Turning to `COc1nc(-c2cccc(-c3ccnc(-c4cc(OC)c5nc(CNCCCF)nn5c4)c3Cl)c2Cl)ccc1CNC1CCN(C(C)=O)CC1` [Example 713, 1-(4-(((6-(2-Chloro-3-(3-chloro-2-(2-(((3-fluoropropyl)amino)methyl)-8-methoxy-[1,2,4]triazolo[1,5-a]pyridin-6-yl)pyridin-4-yl)phenyl)-2-methoxypyridin-3-yl)methyl)amino)piperidin-1-yl)ethan-1-one], a half-maximal response (EC50) required 130 nM.
Turning to `COc1nc(-c2cncc(-c3cccc(NC(=O)c4cn(C)c(=O)n(C)c4=O)c3Cl)c2Cl)ccc1CNC[C@@H]1CCC(=O)N1` [Compound 712, (S)—N-(2-Chloro-3-(4′-chloro-6-methoxy-5-((((5-oxopyrrolidin-2-yl)methyl)amino)methyl)-[2,3′-bipyridin]-5′-yl)phenyl)-1,3-dimethyl-2,4-dioxo-1,2,3,4-tetrahydropyrimidine-5-carboxamide], the EC50 was determined as 89.1 nM.
The figure for `COc1nc(-c2ccnc(-c3cccc4c3CC[C@@H]4Oc3nc(OC)c(CNC[C@H](C)O)cc3C(F)(F)F)c2Cl)ccc1CNC[C@H](C)O` [Example 253, (S)-1-(((3′-Chloro-2′-((S)-1-((5-((((S)-2-hydroxypropyl)amino)methyl)-6-methoxy-3-(trifluoromethyl)pyridin-2-yl)oxy)-2,3-dihydro-1H-inden-4-yl)-6-methoxy-[2,4′-bipyridin]-5-yl)methyl)amino)propan-2-ol] is 39.2 nM.
Compound `COc1nc(-c2cccc(-c3ccnc(-c4cc(OC)c5nc(CNCCC6(C(=O)O)CC6)nn5c4)c3Cl)c2Cl)ccc1CNC[C@@H]1CCC(=O)N1` [Example 262, (S)-1-(2-(((6-(3-Chloro-4-(2-chloro-3-(6-methoxy-5-((((5-oxopyrrolidin-2-yl)methyl)amino)methyl)pyridin-2-yl)phenyl)pyridin-2-yl)-8-methoxy-[1,2,4]triazolo[1,5-a]pyridin-2-yl)methyl)amino)ethyl)cyclopropane-1-carboxylic acid] gave an EC50 of 82.8 nM.
The figure for `COc1nc(-c2cccc(-c3ccnc(-c4cc(OC)c5nc(CN[C@H]6C[C@](C)(O)C6)nn5c4)c3Cl)c2Cl)ccc1CNC1CCN(C(C)=O)CC1` [Example 596, 1-(4-(((6-(2-Chloro-3-(3-chloro-2-(2-((((1r,3r)-3-hydroxy-3-methylcyclobutyl)amino)methyl)-8-methoxy-[1,2,4]triazolo[1,5-a]pyridin-6-yl)pyridin-4-yl)phenyl)-2-methoxypyridin-3-yl)methyl)amino)piperidin-1-yl)ethan-1-one] is 350 nM.
For the compound `COc1cc(-c2nccc(-c3cccc(-c4ccc(CNC[C@@H]5CCC(=O)N5)c(OC)n4)c3Cl)c2Cl)ccc1CN1CCC[C@H]1C(=O)O` [Cmpd 78, (4-(3-chloro-4-(2-chloro-3-(6-methoxy-5-(((((S)-5-oxopyrrolidin-2-yl)methyl)amino)methyl)pyridin-2-yl)phenyl)pyridin-2-yl)-2-methoxybenzyl)-L-proline], a half-maximal effect (EC50) was put at 205 nM.
Consider `COc1nc(-c2ccnc(-c3cccc4c3CC[C@@H]4Oc3nc(OC)c(CN4CC5(CNC(=O)C5)C4)cc3C(F)(F)F)c2Cl)ccc1CN1CC2(CNC(=O)C2)C1` [Example 336, (S)-2-((3′-Chloro-6-methoxy-2′-(1-((6-methoxy-5-((7-oxo-2,6-diazaspiro[3.4]octan-2-yl)methyl)-3-(trifluoromethyl)pyridin-2-yl)oxy)-2,3-dihydro-1H-inden-4-yl)-[2,4′-bipyridin]-5-yl)methyl)-2,6-diazaspiro[3.4]octan-7-one], for which the EC50 was 95.6 nM.
The figure for `COc1nc(-c2cccc(-c3ccnc(-c4ccc5c(c4)CCC[C@H]5NC[C@@H]4CCC(=O)N4)c3Cl)c2Cl)ccc1CNC[C@H](C)O` [Example 256, (S)-5-((((R)-6-(3-Chloro-4-(2-chloro-3-(5-((((S)-2-hydroxypropyl)amino)methyl)-6-methoxypyridin-2-yl)phenyl)pyridin-2-yl)-1,2,3,4-tetrahydronaphthalen-1-yl)amino)methyl)pyrrolidin-2-one] is 168 nM; for `COc1cc(-c2nccc(-c3cccc(-c4ccc5c(CNCC6CCOCC6)cn(C)c5n4)c3Cl)c2Cl)ccc1CNC1CCN(C(C)=O)CC1` [Example 557, 1-(4-((4-(3-chloro-4-(2-chloro-3-(1-methyl-3-((((tetrahydro-2H-pyran-4-yl)methyl)amino)methyl)-1H-pyrrolo[2,3-b]pyridin-6-yl)phenyl)pyridin-2-yl)-2-methoxybenzyl)amino)piperidin-1-yl)ethan-1-one] it is 378 nM; for `COc1nc(-c2cccc(-c3ccnc(-c4cc(OC)c5nc(CNC(C)C)nn5c4)c3Cl)c2Cl)ccc1CNC1CCN(C(C)=O)CC1` [Cmpd 644, 1-(4-(((6-(2-chloro-3-(3-chloro-2-(2-((isopropylamino)methyl)-8-methoxy-[1,2,4]triazolo[1,5-a]pyridin-6-yl)pyridin-4-yl)phenyl)-2-methoxypyridin-3-yl)methyl)amino)piperidin-1-yl)ethan-1-one] it is 84.8 nM.
Compound `COc1cc(-c2nccc(-c3cccc(-c4ccc(CNC5CCN(C(C)=O)CC5)c(OC)n4)c3Cl)c2Cl)ccc1CN1CC2(C1)CN(C(C)=O)C2` [Example 482, 1-(4-(((6-(3-(2-(4-((6-acetyl-2,6-diazaspiro[3.3]heptan-2-yl)methyl)-3-methoxyphenyl)-3-chloropyridin-4-yl)-2-chlorophenyl)-2-methoxypyridin-3-yl)methyl)amino)piperidin-1-yl)ethan-1-one] yielded an EC50 of 20.3 nM.
`COc1cc(-c2nccc(-c3cccc(-c4ccc(CN5CC6(COC6)C5)c(OC)n4)c3Cl)c2C)ccc1CN1CC2(COC2)C1` [Example 464, 6-(4-(4-(3-(5-((2-Oxa-6-azaspiro[3.3]heptan-6-yl)methyl)-6-methoxypyridin-2-yl)-2-chlorophenyl)-3-methylpyridin-2-yl)-2-methoxybenzyl)-2-oxa-6-azaspiro[3.3]heptane] had an EC50 of 226 nM.
The figure for `COc1nc(-c2cccc(-c3ccnc(-c4cc(OC)c5nc(CNCCC6(C(=O)O)CC6)cn5c4)c3Cl)c2Cl)ccc1CNC[C@@H]1CCC(=O)N1` [Example 351, (S)-1-(2-(((6-(3-Chloro-4-(2-chloro-3-(6-methoxy-5-((((5-oxopyrrolidin-2-yl)methyl)amino)methyl)pyridin-2-yl)phenyl)pyridin-2-yl)-8-methoxyimidazo[1,2-a]pyridin-2-yl)methyl)amino)ethyl)cyclopropane-1-carboxylic acid] is 146 nM; for `COc1cc(-c2nccc(-c3cccc(-c4ccc(CN5CCC(O)CC5)c(OC)n4)c3Cl)c2Cl)ccc1CNC1CCN(C(C)=O)CC1` [Example 487, 1-(4-((4-(3-Chloro-4-(2-chloro-3-(5-((4-hydroxypiperidin-1-yl)methyl)-6-methoxypyridin-2-yl)phenyl)pyridin-2-yl)-2-methoxybenzyl)amino)piperidin-1-yl)ethan-1-one] it is 39.9 nM; for `COc1cc(-c2ncnc(-c3cccc(-c4ccc(CNC[C@@H]5CCC(=O)N5)c(OC)n4)c3Cl)c2C)ccc1CNC[C@@H]1CCC(=O)N1` [Example 523, (S)-5-((((6-(2-Chloro-3-(6-(3-methoxy-4-(((((S)-5-oxopyrrolidin-2-yl)methyl)amino)methyl)phenyl)-5-methylpyrimidin-4-yl)phenyl)-2-methoxypyridin-3-yl)methyl)amino)methyl)pyrrolidin-2-one] it is 92.4 nM.
In turn, `COc1nc(-c2cccc(-c3ccnc(-c4cnn(C5CNC5)c4)c3Cl)c2Cl)ccc1CNC[C@@H]1CCC(=O)N1` [Cmpd 119, (S)-5-((((6-(3-(2-(1-(azetidin-3-yl)-1H-pyrazol-4-yl)-3-chloropyridin-4-yl)-2-chlorophenyl)-2-methoxypyridin-3-yl)methyl)amino)methyl)pyrrolidin-2-one] had an EC50 of 370 nM.
The figure for `COc1nc(-c2ccnc(-c3cccc4c3CC[C@@H]4Oc3nc(OC)c(CNC4CCN(C(C)=O)CC4)cc3C(F)(F)F)c2Cl)ccc1CNC[C@@H]1CCC(=O)N1` [Example 527, (S)-5-((((2′-((S)-1-((5-(((1-acetylpiperidin-4-yl)amino)methyl)-6-methoxy-3-(trifluoromethyl)pyridin-2-yl)oxy)-2,3-dihydro-1H-inden-4-yl)-3′-chloro-6-methoxy-[2,4′-bipyridin]-5-yl)methyl)amino)methyl)pyrrolidin-2-one] is 14.4 nM; for `COc1nc(-c2cccc(-c3ccnc(-c4ccc5c(c4)N(C)CCNC5)c3Cl)c2Cl)ccc1CNCC(C)NC(C)=O` (stereo not drawn) [Cmpd 5, N-(1-(((6-(2-chloro-3-(3-chloro-2-(1-methyl-2,3,4,5-tetrahydro-1H-benzo[e][1,4]diazepin-8-yl)pyridin-4-yl)phenyl)-2-methoxypyridin-3-yl)methyl)amino)propan-2-yl)acetamide] it is 172 nM.
